Counter-ions that a name gives are not always drawn.
Target: T1, CHK1 kinase (Homo sapiens, UniProt O14757)
T1 construct: The kinase domain is expressed in baculovirus and purified by the GST tag; GST; made in house
T1 sequence (O14757 9-265 limits assumed): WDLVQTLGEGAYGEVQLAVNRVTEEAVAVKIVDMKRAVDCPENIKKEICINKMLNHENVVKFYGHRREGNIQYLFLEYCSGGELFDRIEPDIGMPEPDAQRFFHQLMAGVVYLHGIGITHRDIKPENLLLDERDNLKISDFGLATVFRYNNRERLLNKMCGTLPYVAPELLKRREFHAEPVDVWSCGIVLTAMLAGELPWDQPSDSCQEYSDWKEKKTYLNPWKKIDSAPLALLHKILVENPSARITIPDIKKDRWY
Assay: Checkpoint Kinase 1 Assay (Scintillation Proximity Assay)
Format: biochemical
Conditions: assay not given; IC50s are determined in the Checkpoint Kinase 1 assay
Procedure: Checkpoint Kinase 1 Assay: This in vitro assay measures the inhibition of CHK1 kinase by compounds. The kinase domain is expressed in baculovirus and purified by the GST tag. Purified protein and biotinylated peptide substrate (Cdc25C) is then used in a 384 well automated Scintillation Proximity Assay (SPA). Specifically, peptide, enzyme and reaction buffer are mixed and aliquoted into a 384 well plate containing dilution series of compounds and controls. Cold and hot ATP are then added to initiate the reaction. After 2 hours, a SPA bead slurry, […] and EDTA are added to stop the reaction and capture the biotinylated peptide. Plates are then counted on a Topcount. Data is analyzed and IC50s determined for individual compounds.

CCN(CC)CCOc1ccc(-c2cc(C(=O)NC3CCCNC3)c(NC(N)=O)s2)cc1 (stereo not shown) [Example 2, 2-[(aminocarbonyl)amino]-5-{4-[2-(diethylamino)ethoxy]phenyl}-N-piperidin-3-ylthiophene-3-carboxamide trifluoroacetate]
IC50: 10 nM

From patent US7423061B2, “Substitute thiophenes and uses thereof” (AstraZeneca AB, priority 2003, dated 2008)
